The record followed here is patent US8551999B2, “Heterocyclic compound and pharmaceutical composition thereof” (Otsuka Pharmaceutical Co., Ltd., priority 2007, dated 2013).

One may read the melting point as the temperature, or range, at which the solid turns liquid. `Br.CN(C(=O)c1ccc(C(F)(F)F)cc1)c1ccc(Oc2ccc3cc(C(=O)N4CCN(Cc5ccc(OCCF)cc5)CC4)n(C)c3c2)nc1` [Example 438, N-[6-(2-{4-[4-(2-Fluoroethoxy)benzyl]piperazine-1-carbonyl}-1-methyl-1H-indol-6-yloxy)pyridin-3-yl]-N-methyl-4-trifluoromethyl-benzamide hydrobromide] yielded a melting point of 215.3 to 216.6 °C. With `CN(C(=O)c1ccc(C(F)(F)F)cc1)c1ccc(Oc2ccc3c(c2)cc(C(=O)N2CCN(Cc4ccc5c(c4)OC(F)(F)O5)CC2)n3C)nc1.O=C(O)C(=O)O` [Example 439, N-(6-{2-[4-(2,2-Difluorobenzo[1,3]dioxol-5-ylmethyl)piperazine-1-carbonyl]-1-methyl-1H-indol-5-yloxy}pyridin-3-yl)-N-methyl-4-tri-fluoromethylbenzamide oxalate], the melting point was in the range of 155.7 to 156.9 °C. For the compound `Br.CN(C(=O)c1ccc(C(F)(F)F)cc1)c1ccc(Oc2ccc3cc(C(=O)N4CCN(Cc5ccc6c(c5)OC(F)(F)O6)CC4)n(C)c3c2)nc1` [Example 440, N-(6-{2-[4-(2,2-Difluorobenzo[1,3]dioxol-5-ylmethyl)piperazine-1-carbonyl]-1-methyl-1H-indol-6-yloxy}pyridin-3-yl)-N-methyl-4-tri-fluoromethylbenzamide hydrobromide], the melting point was 243.3 to 245.1 °C. For the compound `Cc1c(Oc2ccc(N(C)C(=O)c3ccc(C(F)(F)F)cc3)cn2)ccc2c1cc(C(=O)N1CCN(Cc3ccc4c(c3)OC(F)(F)O4)CC1)n2C` [Example 441, N-(6-{2-[4-(2,2-Difluorobenzo[1,3]dioxol-5-ylmethyl)piperazine-1-carbonyl]-1,4-dimethyl-1H-indol-5-yloxy}pyridin-3-yl)-N-methyl-4-trifluoromethylbenzamide], the melting point lay within 97.9 to 99.5 °C. On to `Br.CN(C(=O)c1ccc(C(F)(F)F)cc1)c1ccc(Oc2ccc3cc(C(=O)N4CCN(Cc5ccc(OC(F)(F)C(F)F)cc5)CC4)n(C)c3c2)nc1` [Example 443, N-Methyl-N-[6-(1-methyl-2-{4-[4-(1,1,2,2-tetrafluoroethoxy)-benzyl]piperazine-1-carbonyl}-1H-indol-6-yloxy)pyridin-3-yl]-4-trifluoromethylbenzamide hydrobromide], for which the melting point lay within 245.4 to 247.6 °C.

With `CC(C)Oc1ccc(CN2CCN(C(=O)c3cc4ccc(Oc5ccc(N(C)C(=O)c6ccc(C(F)(F)F)cc6)cn5)cc4n3C)CC2)cn1.O=C(O)/C=C\C(=O)O` [Example 444, N-(6-{2-[4-(6-Isopropoxypyridin-3-ylmethyl)piperazine-1-carbonyl]-1-methyl-1H-indol-6-yloxy}pyridin-3-yl)-N-methyl-4-tri-fluoromethylbenzamide maleate], the melting point was 156.8 to 157.4 °C. The compound `Br.CN(C(=O)c1ccc(C(F)(F)F)cc1)c1ccc(Oc2ccc3cc(C(=O)N4CCN(Cc5ccc(OC(F)(F)F)cc5)CC4)n(C)c3c2)nc1` [Example 446, N-Methyl-N-(6-{1-methyl-2-[4-(4-trifluoromethoxybenzyl)-piperazine-1-carbonyl]-1H-indol-6-yloxy}pyridin-3-yl)-4-tri-fluoromethylbenzamide hydrobromide] returned a melting point of 237 to 239 °C. With `Br.CN(C(=O)c1ccc(C(F)(F)F)cc1Cl)c1ccc(Oc2ccc3cc(C(=O)N4CCN(Cc5ccc(OCCF)cc5)CC4)n(C)c3c2)nc1` [Example 447, 2-Chloro-N-[6-(2-{4-[4-(2-fluoroethoxy)benzyl]piperazine-1-carbonyl}-1-methyl-1H-indol-6-yloxy)pyridin-3-yl]-N-methyl-4-tri-fluoromethylbenzamide hydrobromide] the figure was 223.6 to 225.4 °C. Take `Br.CN(C(=O)c1ccc(C(F)(F)F)cc1Cl)c1ccc(Oc2ccc3cc(C(=O)N4CCN(Cc5ccc(OCC(F)F)cc5)CC4)n(C)c3c2)nc1` [Example 448, 2-Chloro-N-[6-(2-{4-[4-(2,2-difluoroethoxy)benzyl]piperazine-1-carbonyl}-1-methyl-1H-indol-6-yloxy)pyridin-3-yl]-N-methyl-4-tri-fluoromethylbenzamide hydrobromide]: the melting point was in the range of 232.4 to 232.8 °C. On to `Br.CN(C(=O)c1ccc(C(F)(F)F)cc1Cl)c1ccc(Oc2ccc3cc(C(=O)N4CCN(Cc5ccc(OCC(F)(F)F)cc5)CC4)n(C)c3c2)nc1` [Example 449, 2-Chloro-N-methyl-N-[6-(1-methyl-2-{4-[4-(2,2,2-trifluoroethoxy)-benzyl]piperazine-1-carbonyl}-1H-indol-6-yloxy)pyridin-3-yl]-4-trifluoromethylbenzamide hydrobromide], for which the melting point lay within 239.5 to 240.6 °C.

The compound `Br.CCCOc1ccc(CN2CCN(C(=O)c3cc4ccc(Oc5ccc(N(C)C(=O)c6ccc(C(F)(F)F)cc6Cl)cn5)cc4n3C)CC2)cc1` [Example 450, 2-Chloro-N-methyl-N-(6-{1-methyl-2-[4-(4-propoxybenzyl)-piperazine-1-carbonyl]-1H-indol-6-yloxy}pyridin-3-yl)-4-tri-fluoromethylbenzamide hydrobromide] came in with a melting point of 238.6 to 240.1 °C. With `Br.CC(C)Oc1ccc(CN2CCN(C(=O)c3cc4ccc(Oc5ccc(N(C)C(=O)c6ccc(C(F)(F)F)cc6Cl)cn5)cc4n3C)CC2)cc1` [Example 451, 2-Chloro-N-(6-{2-[4-(4-isopropoxybenzyl)piperazine-1-carbonyl]-1-methyl-1H-indol-6-yloxy}pyridin-3-yl)-N-methyl-4-trifluoromethyl-benzamide hydrobromide] the figure was 248.3 to 252.3 °C; with `Br.Cn1c(C(=O)N2CCN(Cc3ccc4c(c3)OCO4)CC2)cc2ccc(Oc3ccc(NC(=O)c4ccc(C(F)(F)F)cc4)cn3)cc21` [Example 454, N-{6-[2-(4-Benzo[1,3]dioxol-5-ylmethylpiperazine-1-carbonyl)-1-methyl-1H-indol-6-yloxy]pyridin-3-yl}-4-trifluoromethylbenzamide hydrobromide], 264 to 265.6 °C; with `Br.CN(C(=O)c1ccc(OC(F)(F)F)cc1)c1ccc(Oc2ccc3cc(C(=O)N4CCN(Cc5ccc(OCC(F)(F)F)cc5)CC4)n(C)c3c2)nc1` [Example 456, N-Methyl-N-[6-(1-methyl-2-{4-[4-(2,2,2-trifluoroethoxy)benzyl]-piperazine-1-carbonyl}-1H-indol-6-yloxy)pyridin-3-yl]-4-tri-fluoromethoxybenzamide hydrobromide], 227.4 to 229.2 °C. Regarding `Br.Cn1c(C(=O)N2CCN(Cc3ccc(O)cc3)CC2)cc2ccc(Oc3ccc(NC(=O)c4ccc(C(F)(F)F)cc4)cn3)cc21` [Example 459, N-(6-{2-[4-(4-Hydroxybenzyl)piperazine-1-carbonyl]-1-methyl-1H-indol-6-yloxy}pyridin-3-yl)-4-trifluoromethylbenzamide hydrobromide], the melting point was in the range of 241.4 to 242.7 °C.

In turn, `Br.CC(C)Oc1ccc(CN2CCN(C(=O)c3cc4cc(Oc5ccc(NC(=O)c6ccc(C(F)(F)F)cc6)cn5)ccc4n3C)CC2)cc1` [Example 460, N-(6-{2-[4-(4-Isopropoxybenzyl)piperazine-1-carbonyl]-1-methyl-1H-indol-5-yloxy}pyridin-3-yl)-4-trifluoromethylbenzamide hydrobromide] returned a melting point of 236.8 to 243.8 °C.

`Br.Cn1c(C(=O)N2CCN(Cc3ccc(OCC(F)F)cc3)CC2)cc2cc(Oc3ccc(NC(=O)c4ccc(C(F)(F)F)cc4)cn3)ccc21` [Example 462, N-[6-(2-{4-[4-(2,2-Difluoroethoxy)benzyl]piperazine-1-carbonyl}-1-methyl-1H-indol-5-yloxy)pyridin-3-yl]-4-trifluoromethyl-benzamide hydrobromide] displayed a melting point of 229.1 to 230.8 °C.

As to `Br.Cn1c(C(=O)N2CCN(Cc3ccc(OCC(F)(F)F)cc3)CC2)cc2cc(Oc3ccc(NC(=O)c4ccc(C(F)(F)F)cc4)cn3)ccc21` [Example 463, N-[6-(1-Methyl-2-{4-[4-(2,2,2-trifluoroethoxy)benzyl]piperazine-1-carbonyl}-1H-indol-5-yloxy)pyridin-3-yl]-4-trifluoromethyl-benzamide hydrobromide], the melting point was in the range of 236.8 to 237.5 °C. In turn, `Br.Cn1c(C(=O)N2CCN(Cc3ccc(OCCF)cc3)CC2)cc2ccc(Oc3ccc(NC(=O)c4ccc(Cl)c(Cl)c4)cn3)cc21` [Example 464, 3,4-Dichloro-N-[6-(2-{4-[4-(2-fluoroethoxy)benzyl]piperazine-1-carbonyl}-1-methyl-1H-indol-6-yloxy)pyridin-3-yl]benzamide hydrobromide] yielded a melting point of 232.4 to 234.2 °C. As to `Br.Cn1c(C(=O)N2CCN(Cc3ccc(OCC(F)(F)F)cc3)CC2)cc2ccc(Oc3ccc(NC(=O)c4ccc(Cl)c(Cl)c4)cn3)cc21` [Example 465, 3,4-Dichloro-N-[6-(1-methyl-2-{4-[4-(2,2,2-trifluoroethoxy)-benzyl]piperazine-1-carbonyl}-1H-indol-6-yloxy)pyridin-3-yl]-benzamide hydrobromide], the melting point lay within 251.8 to 253.5 °C. As for `Br.CC(C)Oc1ccc(CN2CCN(C(=O)c3cc4ccc(Oc5ccc(NC(=O)c6ccc(Cl)c(Cl)c6)cn5)cc4n3C)CC2)cn1` [Example 466, 3,4-Dichloro-N-(6-{2-[4-(6-isopropoxypyridin-3-ylmethyl)-piperazine-1-carbonyl]-1-methyl-1H-indol-6-yloxy}pyridin-3-yl)-benzamide hydrobromide], the melting point was in the range of 236.9 to 240.4 °C. Turning to `Br.Cn1c(C(=O)N2CCN(Cc3ccc4c(c3)OC(F)(F)O4)CC2)cc2ccc(Oc3ccc(NC(=O)c4ccc(Cl)c(Cl)c4)cn3)cc21` [Example 467, 3,4-Dichloro-N-(6-{2-[4-(2,2-difluorobenzo[1,3]dioxol-5-yl-methyl)piperazine-1-carbonyl]-1-methyl-1H-indol-6-yloxy}pyridin-3-yl)benzamide hydrobromide], the melting point was 253 to 254.8 °C. With `Br.Cn1c(C(=O)N2CCN(Cc3ccc(OC(CF)CF)cc3)CC2)cc2ccc(Oc3ccc(NC(=O)c4ccc(Cl)c(Cl)c4)cn3)cc21` [Example 470, 3,4-Dichloro-N-[6-(2-{4-[4-(2-fluoro-1-fluoromethylethoxy)-benzyl]piperazine-1-carbonyl}-1-methyl-1H-indol-6-yloxy)pyridin-3-yl]benzamide hydrobromide] the figure was 242.8 to 243.9 °C.
